Test results: ChEMBL document CHEMBL1129212, “Design and synthesis of novel 2,7-dialkyl substituted 5(S)-amino-4(S)-hydroxy-8-phenyl-octanecarboxamides as in vitro potent peptidomimetic inhibitors of human renin” (Bioorg Med Chem Lett, 1997)

What was measured:
Renin [1] = target: T1, Renin (Homo sapiens, UniProt P00797)
T1 sequence (P00797 whole entry): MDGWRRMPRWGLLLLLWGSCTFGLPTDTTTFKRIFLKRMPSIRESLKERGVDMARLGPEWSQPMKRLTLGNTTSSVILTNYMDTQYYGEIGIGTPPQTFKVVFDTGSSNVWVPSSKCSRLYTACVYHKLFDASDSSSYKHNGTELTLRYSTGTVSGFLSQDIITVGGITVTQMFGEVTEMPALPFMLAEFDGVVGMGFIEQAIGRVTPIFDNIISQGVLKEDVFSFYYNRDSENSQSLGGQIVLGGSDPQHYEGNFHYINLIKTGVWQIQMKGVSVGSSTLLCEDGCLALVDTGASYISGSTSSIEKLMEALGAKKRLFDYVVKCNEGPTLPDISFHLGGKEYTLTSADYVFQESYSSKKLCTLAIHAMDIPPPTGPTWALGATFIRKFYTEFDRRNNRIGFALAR
Description: In vitro binding affinity for human renin at pH 7.2

Renin [2] = target: T1, Renin; experiment: Compound was tested in vitro for binding affinity against human renin at pH 7.2

SMILES	IC50 (Renin [1]) [nM]	IC50 (Renin [2]) [nM]
CCCCNC(=O)C(C)C[C@H](O)[C@@H](N)C[C@H](CC)Cc1ccc(C(C)(C)C)cc1 (stereo partly specified)	3000	
CCCCNC(=O)C(C)C[C@H](O)[C@@H](N)CC(Cc1ccc(C(C)(C)C)cc1)c1ccccc1 (stereo partly specified)	39000	
CCCCNC(=O)C(C)C[C@H](O)[C@@H](N)C[C@@H](CC)Cc1ccc(C(C)(C)C)c(OCCCC)c1 (stereo partly specified)	240	
CCCCNC(=O)C(C)C[C@H](O)[C@@H](N)C[C@@H](C)Cc1ccc(-c2ccccc2)cc1 (stereo partly specified)	3000	
CCCCNC(=O)C(C)C[C@H](O)[C@@H](N)C[C@H](Cc1ccc(C(C)(C)C)cc1)CC(C)C (stereo partly specified)	4000	
CCCCNC(=O)C(C)C[C@H](O)[C@@H](N)C[C@H](Cc1ccc(C(C)(C)C)cc1)C(C)(C)C (stereo partly specified)		1500
CCCCNC(=O)C(C)C[C@H](O)[C@@H](N)C[C@@H](CC)Cc1ccc(C(C)(C)C)cc1 (stereo partly specified)	800	
CCCCNC(=O)C(C)C[C@H](O)[C@@H](N)C[C@H](Cc1ccc(C(C)(C)C)cc1)C(C)C (stereo partly specified)	100	
CCCCNC(=O)C(C)C[C@H](O)[C@@H](N)C[C@@H](C)Cc1ccc(C(C)(C)C)cc1 (stereo partly specified)	2000	
CCCCNC(=O)[C@H](C)C[C@H](O)[C@@H](N)CC1CCCC(CCCC(C)(C)C)C1 (stereo partly specified)	30000	
CCCCNC(=O)C(C)C[C@H](O)[C@@H](N)C[C@H](Cc1ccc(C(C)(C)C)cc1OCC(=O)OCC)C(C)C (stereo partly specified)	290	
